# According to ChEMBL document CHEMBL5584348, “Exploring Degradation of Intrinsically Disordered Protein Yes-Associated Protein Induced by Proteolysis TArgeting Chimeras” (J Med Chem, 2024):
# Activity calls are given as the source filed them. The calls are words filed in the database; no cut-off is given here.
# What was measured:
# [1] = test system: NCI-H2452; experiment: Antiproliferative activity against human NCI-H2452 cells expressing NF2 assessed as reduction in cell viability incubated for 4 days by CCK-8 assay; type: functional, cell-based; conditions: time 4.0 day
# [2] = target: T1, von Hippel-Lindau disease tumor suppressor/Transcriptional coactivator YAP1 (Homo sapiens, UniProt P40337+P46937); experiment: PROTAC activity at YAP/VHL in human Huh-7 cells assessed as induction of YAP degradation incubated for 48 hrs by Western blot analysis; type: cell-based
# Target sequence in this assay (P40337 whole entry): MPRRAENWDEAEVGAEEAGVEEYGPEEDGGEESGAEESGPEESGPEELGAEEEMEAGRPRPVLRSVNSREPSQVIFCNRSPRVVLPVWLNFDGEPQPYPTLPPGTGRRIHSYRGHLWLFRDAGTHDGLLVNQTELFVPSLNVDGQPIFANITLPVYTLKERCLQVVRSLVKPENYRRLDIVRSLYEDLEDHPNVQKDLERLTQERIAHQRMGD
# Target sequence in this assay (P46937 whole entry): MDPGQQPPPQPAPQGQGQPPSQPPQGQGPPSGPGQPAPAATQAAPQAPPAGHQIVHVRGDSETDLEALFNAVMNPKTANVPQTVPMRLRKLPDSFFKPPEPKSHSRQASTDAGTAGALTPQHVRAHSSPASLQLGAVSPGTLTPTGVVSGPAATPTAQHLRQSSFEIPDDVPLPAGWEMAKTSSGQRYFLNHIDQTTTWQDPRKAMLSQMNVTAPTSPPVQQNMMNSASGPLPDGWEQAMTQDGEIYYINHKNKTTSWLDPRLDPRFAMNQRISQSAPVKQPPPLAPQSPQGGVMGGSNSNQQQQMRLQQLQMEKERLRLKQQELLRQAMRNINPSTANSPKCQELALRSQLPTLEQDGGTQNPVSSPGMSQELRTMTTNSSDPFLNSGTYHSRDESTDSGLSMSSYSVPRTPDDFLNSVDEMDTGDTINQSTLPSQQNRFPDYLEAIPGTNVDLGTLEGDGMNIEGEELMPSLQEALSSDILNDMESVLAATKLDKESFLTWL
# [3] = target: T1, von Hippel-Lindau disease tumor suppressor/Transcriptional coactivator YAP1; experiment: PROTAC activity at YAP/VHL in human NCI-H226 cells assessed as reduction in YAP level at 10 uM incubated for 48 hrs by Western blot analysis relative to control; type: cell-based; design: scale not given: the % may be the effect or the level left
# Target sequence in this assay (P40337 whole entry, looked up): as the sequence (P40337 whole entry) above
# Target sequence in this assay (P46937 whole entry, looked up): as the sequence (P46937 whole entry) above
# [4] = target: T1, von Hippel-Lindau disease tumor suppressor/Transcriptional coactivator YAP1; experiment: PROTAC activity at YAP/VHL in human NCI-H226 cells assessed as induction of YAP degradation at 2.5 to 20 uM incubated for 48 hrs by Western blot analysis relative to control; type: cell-based; conditions: dose 2.5-20 µM
# Target sequence in this assay (P40337 whole entry, looked up): as the sequence (P40337 whole entry) above
# Target sequence in this assay (P46937 whole entry, looked up): as the sequence (P46937 whole entry) above
# [5] = target: T1, von Hippel-Lindau disease tumor suppressor/Transcriptional coactivator YAP1; experiment: PROTAC activity at YAP/VHL in human NCI-H226 cells assessed as reduction in CTGF expression incubated for 48 hrs by Western blot analysis; type: cell-based; conditions: dose 2.5-20 µM
# Target sequence in this assay (P40337 whole entry, looked up): as the sequence (P40337 whole entry) above
# Target sequence in this assay (P46937 whole entry, looked up): as the sequence (P46937 whole entry) above
# [6] = target: T1, von Hippel-Lindau disease tumor suppressor/Transcriptional coactivator YAP1; experiment: PROTAC activity at YAP/VHL in human NCI-H226 cells assessed as reduction in CTGF expression at 5 uM incubated for 48 hrs by Western blot analysis; type: cell-based
# Target sequence in this assay (P40337 whole entry, looked up): as the sequence (P40337 whole entry) above
# Target sequence in this assay (P46937 whole entry, looked up): as the sequence (P46937 whole entry) above
# [7] = test system: NCI-H226; experiment: Antiproliferative activity against NF2 deficient- human NCI-H226 cells assessed as cell growth inhibition incubated for 4 days by CCK-8 assay; type: functional, cell-based; conditions: NCI-H226, 96 h
# [8] = test system: NCI-H226; experiment: Antiproliferative activity against NF2 deficient- human NCI-H226 cells assessed as maximum cell growth inhibition incubated for 4 days by CCK-8 assay relative to control; type: functional; conditions: time 4 day
# [9] = test system: Huh-7; experiment: Antiproliferative activity against human Huh-7 cells overexpressing YAP assessed as cell growth inhibition incubated for 4 days by CCK-8 assay; type: functional, cell-based; conditions: Huh-7, 96 h
# [10] = test system: AML12; experiment: Antiproliferative activity against mouse AML12 cells assessed as suppression of cell proliferation incubated for 4 days by CCK-8 assay; type: toxicity, cell-based; conditions: aml12, 96 h, time 4 day
# [11] = target: T2, von Hippel-Lindau disease tumor suppressor/WW domain-containing transcription regulator protein 1 (Homo sapiens) (UniProt P40337+Q9GZV5); experiment: PROTAC activity at TAZ/VHL in human Huh-7 cells assessed as induction of TAZ degradation at 5 to 20 uM incubated for 24 hrs by Western blot analysis; type: cell-based; conditions: dose 5-20 µM
# [12] = target: T2, von Hippel-Lindau disease tumor suppressor/WW domain-containing transcription regulator protein 1 (Homo sapiens); experiment: PROTAC activity at TAZ/VHL in human Huh-7 cells assessed as reduction in TAZ expression incubated for 24 hrs by Western blot analysis; type: cell-based; conditions: dose 5-20 µM
# [13] = target: T1, von Hippel-Lindau disease tumor suppressor/Transcriptional coactivator YAP1; experiment: PROTAC activity at YAP/VHL in human NCI-H226 cells assessed as downregulation of YAP level at 20 uM incubated at 24 hrs by Western blot analysis; type: cell-based
# Target sequence in this assay (P40337 whole entry, looked up): as the sequence (P40337 whole entry) above
# Target sequence in this assay (P46937 whole entry, looked up): as the sequence (P46937 whole entry) above
# [14] = target: T1, von Hippel-Lindau disease tumor suppressor/Transcriptional coactivator YAP1; experiment: PROTAC activity at YAP/VHL in human Huh-7 cells assessed as downregulation of YAP level at 20 uM incubated at 24 hrs by Western blot analysis; type: cell-based
# Target sequence in this assay (P40337 whole entry, looked up): as the sequence (P40337 whole entry) above
# Target sequence in this assay (P46937 whole entry, looked up): as the sequence (P46937 whole entry) above
# [15] = target: T1, von Hippel-Lindau disease tumor suppressor/Transcriptional coactivator YAP1; experiment: PROTAC activity at YAP/VHL in human NCI-H226 cells assessed as induction of YAP degradation at 20 uM incubated at 48 hrs by Western blot analysis; type: cell-based
# [16] = target: T1, von Hippel-Lindau disease tumor suppressor/Transcriptional coactivator YAP1; experiment: PROTAC activity at YAP/VHL in human Huh-7 cells assessed as induction of YAP degradation at 20 uM incubated at 48 hrs by Western blot analysis; type: cell-based
# [17] = target: T1, von Hippel-Lindau disease tumor suppressor/Transcriptional coactivator YAP1; experiment: PROTAC activity at YAP/VHL in human Huh-7 cells assessed as induction of YAP degradation by measuring half life at 20 uM incubated at 48 hrs by Western blot analysis; type: cell-based
# [18] = target: T1, von Hippel-Lindau disease tumor suppressor/Transcriptional coactivator YAP1; experiment: PROTAC activity at YAP/VHL in human Huh-7 cells assessed as induction of YAP degradation at 20 uM incubated at 12 hrs by Western blot analysis; type: cell-based
# [19] = target: T1, von Hippel-Lindau disease tumor suppressor/Transcriptional coactivator YAP1; experiment: PROTAC activity at YAP/VHL in human Huh-7 cells assessed as induction of YAP degradation at 20 uM measured for 24 hrs in presence of MLN-4924 by Western blot analysis; type: cell-based
# [20] = target: T1, von Hippel-Lindau disease tumor suppressor/Transcriptional coactivator YAP1; experiment: PROTAC activity at YAP/VHL in human Huh-7 cells assessed as induction of YAP degradation at 20 uM measured for 24 hrs in presence of 4-(3,4-dimethoxyphenyl)-2-phenyl-5,7-dihydro-6H-benzo[b]pyrido[2,3-d]azepin-6-one by Western blot analysis; type: cell-based
# [21] = target: T1, von Hippel-Lindau disease tumor suppressor/Transcriptional coactivator YAP1; experiment: PROTAC activity at YAP/VHL in human Huh-7 cells assessed as induction of YAP degradation at 20 uM measured for 24 hrs by Western blot analysis relative to control; type: cell-based
# [22] = target: Transcriptional coactivator YAP1 (Homo sapiens) (UniProt P46937); experiment: Inhibition of YAP nuclear localization in human Huh-7 cells assessed as decrease in integrated YAP intensity incubated for 12 hrs by immunofluorescence based microscopic analysis; type: cell-based; conditions: dose <= 20.0 µM
# [23] = target: Transcriptional coactivator YAP1 (Homo sapiens) (UniProt P46937); experiment: Inhibition of YAP nuclear localization in human Huh-7 cells assessed as decrease in mean YAP intensity incubated for 12 hrs by immunofluorescence based microscopic analysis; type: cell-based; conditions: dose <= 20.0 µM
# [24] = test system: Huh-7; experiment: Antitumor activity against human Huh-7 cells xenografted in immunodeficient male NSG mouse assessed as tumor growth inhibition at 35 mg/kg, ip administered every 3 days for 24 days; type: functional; conditions: Huh-7, 576 h, time 24 day, read-out: TGI
# [25] = test system: Huh-7; experiment: Antitumor activity against human Huh-7 cells xenografted in immunodeficient male NSG mouse assessed as tumor growth inhibition at 35 mg/kg, ip administered every 3 days for 24 days in presence of sorafenib; type: functional; conditions: Huh-7, 576 h, time 24 day, read-out: TGI
# [26] = Toxicity in immunodeficient male NSG mouse xenografted with human Huh-7 cells assessed as change in body weight at 35 mg/kg, ip administered every 3 days for 24 days; type: organism-based; conditions: in vivo, 576 h, time 24 day
# [27] = test system: Huh-7; experiment: Antitumor activity against human Huh-7 cells xenografted in immunodeficient male NSG mouse assessed as suppression of YAP expression at 35 mg/kg, ip administered every 3 days for 24 days; type: functional, organism-based; conditions: time 24.0 day
# [28] = Toxicity in immunodeficient male NSG mouse xenografted with human Huh-7 cells assessed as change in total bilirubin level in liver at 35 mg/kg, ip administered every 3 days for 24 days; type: organism-based; conditions: in vivo, 576 h, time 24 day
# [29] = Toxicity in immunodeficient male NSG mouse xenografted with human Huh-7 cells assessed as change in AST level in liver at 35 mg/kg, ip administered every 3 days for 24 days; type: organism-based; conditions: in vivo, 576 h, time 24 day
# [30] = Toxicity in immunodeficient male NSG mouse xenografted with human Huh-7 cells assessed as change in triglyceride content in liver at 35 mg/kg, ip administered every 3 days for 24 days; type: organism-based; conditions: in vivo, 576 h, time 24 day
# [31] = Half life in Sprague-Dawley rat at 35 mg/kg, ip measured upto 24 hrs by LC-MS/MS analysis; type: ADME, organism-based; conditions: in vivo
# [32] = Tmax in Sprague-Dawley rat at 35 mg/kg, ip measured upto 24 hrs by LC-MS/MS analysis; type: ADME, organism-based; conditions: in vivo
# [33] = MRT (0 to infinity) in Sprague-Dawley rat at 35 mg/kg, ip measured upto 24 hrs by LC-MS/MS analysis; type: ADME, organism-based; conditions: in vivo
# Chain of Transcriptional coactivator YAP1 (Homo sapiens) (P46937 whole entry): as above
# T2 sequence (P40337 whole entry, looked up, the tested form may be a part): as the sequence (P40337 whole entry) above
# T2 sequence (Q9GZV5 whole entry, looked up, the tested form may be a part): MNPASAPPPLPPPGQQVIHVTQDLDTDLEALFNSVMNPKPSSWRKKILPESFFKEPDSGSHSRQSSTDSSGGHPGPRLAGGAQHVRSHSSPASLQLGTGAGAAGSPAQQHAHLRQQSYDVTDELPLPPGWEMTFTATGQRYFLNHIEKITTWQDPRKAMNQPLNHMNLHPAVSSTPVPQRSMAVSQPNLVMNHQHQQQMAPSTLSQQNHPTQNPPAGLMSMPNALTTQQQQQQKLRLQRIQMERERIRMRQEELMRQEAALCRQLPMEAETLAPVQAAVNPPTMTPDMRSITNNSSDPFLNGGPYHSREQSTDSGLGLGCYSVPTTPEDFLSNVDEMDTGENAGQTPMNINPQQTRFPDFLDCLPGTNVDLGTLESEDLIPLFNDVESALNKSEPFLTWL
structure (smiles),measurement,setting,value
COc1cc(-c2cc(-c3ccccc3)nc3c2CC(=O)Nc2ccccc2-3)ccc1OCCOCCOCCC(=O)N[C@H](C(=O)N1C[C@H](O)C[C@H]1C(=O)N[C@@H](C)c1ccc(-c2scnc2C)cc1)C(C)(C)C,Activity,[1],inactive
same,DC50,[2],4.3 µM
same,Activity,[3],80%
same,Emax,[4],97%
same,Activity,[5],Dose-Dependent Effect
same,Activity,[6],Active
same,IC50,[7],15.3 µM
same,inhibition (INH),[8],60%
same,IC50,[9],2.9 µM
same,Activity,[10],Non-Toxic
same,Activity,[11],Active
same,Activity,[12],Dose-Dependent Effect
same,Activity,[13],Active
same,Activity,[14],Active
same,Activity,[15],97%
same,Activity,[16],98%
same,T1/2,[17],16.5 h
same,Activity,[18],10%
same,Activity,[19],Active
same,Activity,[20],Active
same,Activity,[21],78%
same,inhibition,[22],Dose-Dependent Effect
same,inhibition,[23],Dose-Dependent Effect
same,inhibition in vivo at 35 mg/kg,[24],82%
same,inhibition in vivo at 35 mg/kg,[25],93%
same,Activity,[26],Non-Toxic
same,Activity,[27],Active
same,Activity,[28],Non-Toxic
same,Activity,[29],Non-Toxic
same,Activity,[30],Non-Toxic
same,half-life,[31],13.3 h
same,Tmax,[32],3.33 h
same,MRT inf,[33],19.9 h
